# From EP0428272A2, “Trifluorobenzodiazepine compounds for use in therapy by intraoral administration” (Ellinwood, Everett Hews, priority 1989, dated 1991)
# Read-outs that look alike come from different tables or passages of the source.
# Assays:
# [1] = Pharmacokinetics in blood plasma after a single sublingual or per oral swallowed dose of quazepam 15 mg standard tablet; assay type: in vivo, volunteer adult humans; settings: for Lag time / half-life / Tmax / Cmax / AUC / CL/F: mean ± SD; for half-life / Tmax / Cmax / AUC: human; for half-life: plasma, 15 mg; for Tmax: time to Cmax; for Cmax: quazepam peak plasma concentration; for AUC: quazepam, area under plasma concentration-time curve; for CL/F: quazepam clearance
# Description: Test results will now be described. Testing was carried out using volunteer adult humans. Standard tablets containing, as active ingredient, solely quazepam or solely halazepam, were used. Such tablets were intended by their manufacturers to be swallowed but dissolved adequately in the mouth to permit the intraoral testing. • Figure 1 is a graph illustrating the concentration of quazepam (Q) and N-desalkyl-2-oxoquazepam (DOQ) in the blood plasma over 96 hours following a single sublingual dose (SL) or per oral swallowed dose (PO) of quazepam in a 15 mg standard tablet. • Figure 2 is a graph illustrating the concentration of quazepam (Q) and N-desalkyl-2-oxoquazepam (DOQ) in the blood plasma over 210 hours following a single sublingual dose (SL) or per oral swallowed dose (PO) of quazepam in a 15 mg standard tablet. • Figure 3 is a graph of computer simulated concentration levels of quazepam and N-desalkyl-2-oxoquazepam in the blood following sublingual and oral swallowed doses of quazepam (15 mg standard tablet) once a day for a 15 day period illustrating the marked reduction in accumulated levels of desalkyloxoquazepam with sublingual dosing; • Figure 4 is a graph illustrating the concentration of halazepam (HZ) and N-desalkyl-3-hydroxy-halazepam (ND) in the blood over 96 hours following a single sublingual dose (SL) or per oral swallowed dose (PO) of halazepam in a 20 mg standard tablet. • Figure 5 is a graph illustrating the concentration of halazepam (HZ) and N-desalkyl-3-hydroxy-halazepam (ND) in the blood over 240 hours following a single sublingual dose (SL) or per oral swallowed (PO) of halazepam in a 20 mg standard tablet; and • Figure 6 is a flow chart of the method of the present invention.
# This change in concentrations for the two compounds can be seen with reference to Figure 1 and Figure 2 of the drawings where the differences in the parent compound Q and the metabolite DOQ for both the oral and sublingual dosing is shown. In Figure 3, by use of standard mutliple Q dose simulations, the differences in accumulation of Q and DOQ for sublingual versus oral dosing over 15 days is shown. With chronic dosing it is readily apparent that after 15 days the DOQ level, following oral administration, has reached levels that are associated with the threshold for impairing ataxic and incoordination affects (especially if larger doses are given).
# In Table 1 and Table 2, set forth below, the average pharmacokinetic parameters for both Q and DOQ for both oral and sublingual routes of administration are set forth: TABLE I
# [2] = Concentration in blood after a single sublingual or per oral swallowed dose of halazepam 20 mg standard tablet; assay type: in vivo, volunteer adult humans; settings: sublingual administration of halazepam versus oral
# Description: Test results will now be described. Testing was carried out using volunteer adult humans. Standard tablets containing, as active ingredient, solely quazepam or solely halazepam, were used. […]
# [3] = quazepam in plasma, oral quazepam 15 mg
# [4] = quazepam in plasma, sublingual quazepam 15 mg
smiles,measurement,setting,value
"O=C1CN=C(c2ccccc2F)c2cc(Cl)ccc2N1 [N-DESALKYL-2-OXOQUAZEPAM, N-desalkyl-2-oxoquazepam]",Lag time,"[1]; metabolite N-desalkyl-2-oxoquazepam in plasma, oral quazepam 15 mg",0.66 ± 0.32 h
same,Lag time,"[1]; metabolite N-desalkyl-2-oxoquazepam in plasma, sublingual quazepam 15 mg",1.74 ± 0.86 h
same,DOQ level relative to oral quazepam administration levels,[1]; sublingual dosing of quazepam versus oral,about one-half
"O=C1Nc2ccc(Cl)cc2C(c2ccccc2)=NC1O (stereo not shown) [N-dealkyl-hydroxy-halazepam, N-desalkyl-3-hydroxy-halazepam]",level of metabolite N-dealkyl-hydroxy-halazepam,[2],reducing
"O=C1CN=C(c2ccccc2)c2cc(Cl)ccc2N1CC(F)(F)F [halazepam, 7-chloro-1,3 dihydro-5-phenyl-1-1-(2,2,2-trifluoroethyl)-2H-1,4-benzodiazepine-2-one]",availability of halazepam,[2],significantly increased
"Fc1ccccc1C1=NCC(=S)N(CC(F)(F)F)c2ccc(Cl)cc21 [quazepam, 7-chloro-1-(2,2,2-trifluorethyl)-5-(o-fluorophenyl)-1,3-dihydro-2H-1,4-benzodiazepine-2-thione]",half-life,"[1]; quazepam in plasma, absorption half-life, sublingual quazepam 15 mg, read-out: t1/2 Ka (converted)",0.27 ± 0.1 h
same,half-life,"[1]; quazepam in plasma, rapid distribution half-life, sublingual quazepam 15 mg, read-out: t1/2 λ₁ (converted)",1.44 ± 0.45 h
same,half-life,"[1]; quazepam in plasma, terminal elimination half-life, sublingual quazepam 15 mg, read-out: t1/2 λ₂ (converted)",27.7 ± 7.18 h
same,half-life,"[1]; po, quazepam in plasma, absorption half-life, oral quazepam 15 mg, read-out: t1/2 Ka (converted)",0.77 ± 0.23 h
same,half-life,"[1]; po, quazepam in plasma, rapid distribution half-life, oral quazepam 15 mg, read-out: t1/2 λ₁ (converted)",1.73 ± 0.65 h
same,half-life,"[1]; po, quazepam in plasma, terminal elimination half-life, oral quazepam 15 mg, read-out: t1/2 λ₂ (converted)",24.6 ± 8.35 h
same,Tmax,[1]; [3],2.57 ± 1.69 h
same,Tmax,[1]; [4],0.78 ± 0.31 h
same,Cmax,[1]; oral quazepam 15 mg,26.7 ± 6.83 ng/mL
same,Cmax,[1]; sublingual quazepam 15 mg,42.4 ± 10.4 ng/mL
same,AUC,[1]; oral quazepam 15 mg,473 ± 239 ng·h/mL
same,AUC,[1]; sublingual quazepam 15 mg,1460 ± 299 ng·h/mL
same,CL/F,[1]; oral quazepam 15 mg,37.56 ± 16.89 h⁻¹
same,CL/F,[1]; sublingual quazepam 15 mg,8.78 ± 5.25 h⁻¹
same,Lag time,[1]; [3],0.52 ± 0.28 h
same,Lag time,[1]; [4],0.18 ± 0.05 h
same,increase of availability of quazepam,[1]; sublingual dosing in contrast to oral dosing of quazepam,about 60%
